Molecules are shown by their SMILES. Converted amounts (≈) assume the structure as drawn. Numbered stars: 1 amine (or outer) side, 2 acyl side, 3 side chain; on linkers, the order of the positions; unused ones are H or OH. Bridge positions count the residues as written; N and C are the ends. Square brackets hold non-standard residues; d marks the D form. Peptide text beside a SMILES is read from it. * marks the point of attachment. hTyr(3S-OH,4S-OH,3'-OSO3H) = N[C@H](C(=O)O)[C@H](O)[C@@H](O)c1ccc(O)c(OS(=O)(=O)O)c1; pTerphenylCO(4''-OnC5H11) = CCCCCOc1ccc(-c2ccc(-c3ccc(C(=O)*)cc3)cc2)cc1; Orn(4R-OH,5R-OH) = O=C([C@H](C[C@@H](O)[C@@H](O)N[*:3])N[*:1])[*:2]; hTyr(3S-OH,4S-OH) = N[C@H](C(=O)O)[C@H](O)[C@@H](O)c1ccc(O)cc1; Pro(3S-OH,4S-Me) = C[C@H]1CN[C@H](C(=O)O)[C@H]1O; X1 = CCCCCOc1ccc(-c2cc(-c3ccc(C(=O)*)cc3)no2)cc1; Gln(3R-OH) = NC(=O)C[C@@H](O)[C@H](N)C(=O)O; Hyp = O=C(O)[C@@H]1C[C@@H](O)CN1

What all share (type): functional
One experiment relates to Candida metapsilosis. Briefly: Antifungal activity against Candida metapsilosis by microdilution AFST-EUCAST method. The conditions noted are these: Lodderomyces metapsilosis. (In general: In broth dilution the organism is exposed to a series of concentrations in liquid medium.)
The subject of a further experiment is Candida parapsilosis. In words: Antifungal activity against Candida parapsilosis by microdilution AFST-EUCAST method. Conditions: Lodderomyces parapsilosis.
Another experiment deals with Candida orthopsilosis. In words: Antifungal activity against Candida orthopsilosis by microdilution AFST-EUCAST method. Conditions: Lodderomyces orthopsilosis.

Take `CCCCCOc1ccc(-c2ccc(-c3ccc(C(=O)N[C@H]4C[C@@H](O)[C@@H](O)NC(=O)[C@@H]5[C@@H](O)[C@@H](C)CN5C(=O)[C@H]([C@@H](C)O)NC(=O)[C@H]([C@H](O)[C@@H](O)c5ccc(O)cc5)NC(=O)[C@@H]5C[C@@H](O)CN5C(=O)[C@H]([C@@H](C)O)NC4=O)cc3)cc2)cc1` [ANIDULAFUNGIN] ({pTerphenylCO(4''-OnC5H11)}-[Orn(4R-OH,5R-OH)]T[Hyp][hTyr(3S-OH,4S-OH)]T[Pro(3S-OH,4S-Me)]; lactam 1-C): the MIC – broadly, the lowest concentration found to suppress growth – turned out to be 0.17 µg/mL (≈ 0.149 µM) with Candida metapsilosis, 0.88 µg/mL (≈ 0.772 µM) against Candida parapsilosis and 0.38 µg/mL (≈ 0.333 µM) in the experiment with Candida orthopsilosis. Also, the MIC50 (in general, an inhibitory concentration at the 50% level, which refers to growth in some studies and to a panel of isolates in others) against Candida metapsilosis was 0.18 µg/mL (≈ 0.158 µM); against Candida parapsilosis, 1 µg/mL (≈ 0.877 µM); with Candida orthopsilosis it was 0.5 µg/mL (≈ 0.438 µM).
For the compound `C[C@@H]1[C@H](O)[C@@H](C)/C=C/C=C/C=C/C=C/C=C/C=C/C=C/[C@H](O[C@@H]2O[C@H](C)[C@@H](O)[C@H](N)[C@@H]2O)C[C@@H]2O[C@](O)(C[C@@H](O)C[C@@H](O)[C@H](O)CC[C@@H](O)C[C@@H](O)CC(=O)O[C@H]1C)C[C@H](O)[C@H]2C(=O)O` [AMPHOTERICIN B], the MIC in the experiment on Candida metapsilosis is 0.08 µg/mL (≈ 0.0866 µM); in the experiment with Candida parapsilosis, 0.14 µg/mL (≈ 0.152 µM); in the experiment on Candida orthopsilosis, 0.06 µg/mL (≈ 0.0649 µM). The MIC50 came out at 0.09 µg/mL (≈ 0.0974 µM) in the experiment with Candida metapsilosis, 0.12 µg/mL (≈ 0.13 µM) against Candida parapsilosis and 0.06 µg/mL (≈ 0.0649 µM) with Candida orthopsilosis.
As for `C[C@@H](c1ncncc1F)[C@](O)(Cn1cncn1)c1ccc(F)cc1F` [VORICONAZOLE], the MIC against Candida metapsilosis was 0.03 µg/mL (≈ 0.0859 µM); in the experiment on Candida parapsilosis, 0.02 µg/mL (≈ 0.0573 µM); in the experiment with Candida orthopsilosis it was 0.03 µg/mL (≈ 0.0859 µM). Also, the results for the MIC50 in the experiment on Candida metapsilosis, in the experiment with Candida parapsilosis and against Candida orthopsilosis were 0.03 µg/mL (≈ 0.0859 µM), 0.02 µg/mL (≈ 0.0573 µM) and 0.03 µg/mL (≈ 0.0859 µM), respectively.
As to `CCCCCOc1ccc(-c2cc(-c3ccc(C(=O)N[C@H]4C[C@@H](O)[C@@H](O)NC(=O)[C@@H]5[C@@H](O)[C@@H](C)CN5C(=O)[C@H]([C@H](O)CC(N)=O)NC(=O)[C@H]([C@H](O)[C@@H](O)c5ccc(O)c(OS(=O)(=O)O)c5)NC(=O)[C@@H]5C[C@@H](O)CN5C(=O)[C@H]([C@@H](C)O)NC4=O)cc3)no2)cc1` [MICAFUNGIN] (X1-[Orn(4R-OH,5R-OH)]T[Hyp][hTyr(3S-OH,4S-OH,3'-OSO3H)][Gln(3R-OH)][Pro(3S-OH,4S-Me)]; lactam 1-C), the results for the MIC against Candida metapsilosis, against Candida parapsilosis and in the experiment with Candida orthopsilosis were 0.28 µg/mL (≈ 0.22 µM), 0.73 µg/mL (≈ 0.575 µM) and 0.25 µg/mL (≈ 0.197 µM), respectively. Moreover, the MIC50 in the experiment with Candida metapsilosis amounted to 0.25 µg/mL (≈ 0.197 µM); in the experiment on Candida parapsilosis it was 1 µg/mL (≈ 0.787 µM); in the experiment with Candida orthopsilosis it was 0.25 µg/mL (≈ 0.197 µM).
Regarding `CCC(C)n1ncn(-c2ccc(N3CCN(c4ccc(OCC5COC(Cn6cncn6)(c6ccc(Cl)cc6Cl)O5)cc4)CC3)cc2)c1=O` (stereo not given) [ITRACONAZOLE], the MIC in the experiment with Candida metapsilosis amounted to 0.04 µg/mL (≈ 0.0567 µM); against Candida parapsilosis it was 0.02 µg/mL (≈ 0.0283 µM); against Candida orthopsilosis, 0.04 µg/mL (≈ 0.0567 µM). Besides, the MIC50 was 0.04 µg/mL (≈ 0.0567 µM) in the experiment with Candida metapsilosis, 0.03 µg/mL (≈ 0.0425 µM) with Candida parapsilosis and 0.03 µg/mL (≈ 0.0425 µM) against Candida orthopsilosis.
`C[C@@H](c1nc(-c2ccc(C#N)cc2)cs1)[C@](O)(Cn1cncn1)c1ccc(F)cc1F` [RAVUCONAZOLE]: the MIC in the experiment on Candida metapsilosis turned out to be 0.02 µg/mL (≈ 0.0457 µM); with Candida parapsilosis, 0.01 µg/mL (≈ 0.0229 µM); in the experiment on Candida orthopsilosis it was 0.02 µg/mL (≈ 0.0457 µM). Moreover, the MIC50 in the experiment with Candida metapsilosis, against Candida parapsilosis and against Candida orthopsilosis was 0.02 µg/mL (≈ 0.0457 µM) each time.
In the case of `CC[C@H](C)C[C@H](C)CCCCCCCCC(=O)N[C@H]1C[C@@H](O)[C@@H](NCCN)NC(=O)[C@@H]2[C@@H](O)CCN2C(=O)[C@H]([C@H](O)CCN)NC(=O)[C@H]([C@H](O)[C@@H](O)c2ccc(O)cc2)NC(=O)[C@@H]2C[C@@H](O)CN2C(=O)[C@H]([C@@H](C)O)NC1=O` [CASPOFUNGIN], the MIC was 0.22 µg/mL (≈ 0.201 µM) against Candida metapsilosis, 0.4 µg/mL (≈ 0.366 µM) in the experiment on Candida parapsilosis and 0.16 µg/mL (≈ 0.146 µM) against Candida orthopsilosis. Besides, the MIC50 against Candida metapsilosis is 0.25 µg/mL (≈ 0.229 µM); in the experiment with Candida parapsilosis, 0.5 µg/mL (≈ 0.457 µM); against Candida orthopsilosis, 0.12 µg/mL (≈ 0.11 µM).
On to `CC[C@@H]([C@H](C)O)n1ncn(-c2ccc(N3CCN(c4ccc(OC[C@@H]5CO[C@@](Cn6cncn6)(c6ccc(F)cc6F)C5)cc4)CC3)cc2)c1=O` [POSACONAZOLE], for which the MIC with Candida metapsilosis was 0.02 µg/mL (≈ 0.0285 µM); in the experiment on Candida parapsilosis, 0.02 µg/mL (≈ 0.0285 µM); in the experiment with Candida orthopsilosis it was 0.03 µg/mL (≈ 0.0428 µM). Moreover, the MIC50 is 0.02 µg/mL (≈ 0.0285 µM) in the experiment with Candida metapsilosis, 0.02 µg/mL (≈ 0.0285 µM) against Candida parapsilosis and 0.03 µg/mL (≈ 0.0428 µM) against Candida orthopsilosis.
`Nc1nc(=O)[nH]cc1F` [FLUCYTOSINE]: the figures for the MIC against Candida metapsilosis, against Candida parapsilosis and against Candida orthopsilosis were 0.14 µg/mL (≈ 1.08 µM), 0.15 µg/mL (≈ 1.16 µM) and 0.12 µg/mL (≈ 0.93 µM), respectively. Also, the MIC50 with Candida metapsilosis, in the experiment on Candida parapsilosis and in the experiment on Candida orthopsilosis was 0.12 µg/mL (≈ 0.93 µM) in each case.
With `OC(Cn1cncn1)(Cn1cncn1)c1ccc(F)cc1F` [FLUCONAZOLE], the MIC with Candida metapsilosis amounted to 1.26 µg/mL (≈ 4.11 µM); against Candida parapsilosis, 0.37 µg/mL (≈ 1.21 µM); against Candida orthopsilosis it was 0.5 µg/mL (≈ 1.63 µM). In addition, the MIC50 with Candida metapsilosis amounted to 1 µg/mL (≈ 3.27 µM); with Candida parapsilosis, 0.5 µg/mL (≈ 1.63 µM); with Candida orthopsilosis it was 0.5 µg/mL (≈ 1.63 µM).

For the origin of these results see ChEMBL document CHEMBL1255323, “Prevalence and susceptibility profile of Candida metapsilosis and Candida orthopsilosis: results from population-based surveillance of candidemia in Spain” (2008).
